Experimental data from PubChem BioAssay AID1963963 (Molecular Pharmacology Branch, DTP, NCI, 2024).
pIC50: −log10 of the molar value.

Test system: 958667-338-R-J2-PDC tumor spheroids viability
Test: Anticancer human tumor 958667-338-R-J2-PDC patient-derived colon adenocarcinoma cell line growth inhibition [PI3K]
Settings: spheroids with HUVEC and MSC; for pIC50: curve of first compound; for viability, T/C: stronger effect = lower value
Summary of the method: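 Tumor cells were combined with HUVEC and MSCs into spheroids, then dosed with PI3K-inhibitor combinations over half-log ranges capped near clinical Cmax or 10 microM.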

[1] = second compound 0.0316 µM, first compound 0.0316 µM
[2] = second compound 0.0316 µM, first compound 0.1 µM
[3] = second compound 0.0316 µM, first compound 0.316 µM
[4] = second compound 0.0316 µM, first compound 1 µM
[5] = second compound 0.0316 µM, first compound 3.16 µM
[6] = second compound 0.0316 µM, first compound 10 µM
[7] = second compound 0.1 µM, first compound 0.0316 µM
[8] = second compound 0.1 µM, first compound 0.1 µM
[9] = second compound 0.1 µM, first compound 0.316 µM
[10] = second compound 0.1 µM, first compound 1 µM
[11] = second compound 0.1 µM, first compound 3.16 µM
[12] = second compound 0.1 µM, first compound 10 µM
[13] = second compound 0.316 µM, first compound 0.0316 µM
[14] = second compound 0.316 µM, first compound 0.1 µM
[15] = second compound 0.316 µM, first compound 0.316 µM
[16] = second compound 0.316 µM, first compound 1 µM
[17] = second compound 0.316 µM, first compound 3.16 µM
[18] = second compound 0.316 µM, first compound 10 µM
[19] = second compound 1 µM, first compound 0.0316 µM
[20] = second compound 1 µM, first compound 0.1 µM
[21] = second compound 1 µM, first compound 0.316 µM
[22] = second compound 1 µM, first compound 1 µM
[23] = second compound 1 µM, first compound 3.16 µM
[24] = second compound 1 µM, first compound 10 µM
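Note: spheroids exposed to compounds for seven days before readout.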

SMILES: CCCS(=O)(=O)Nc1ccc(F)c(C(=O)c2c[nH]c3ncc(-c4ccc(Cl)cc4)cc23)c1F + COc1c(OCCCN2CCOCC2)ccc2c3n(c(=NC(=O)c4cnc(N)nc4)nc12)CCN3
- pIC50 (second compound 0.00316 µM): 5.23
- pIC50 (second compound 0.01 µM): 5.22
- pIC50 (second compound 0.0316 µM): 5.30
- pIC50 (second compound 0.1 µM): 5.39
- pIC50 (second compound 0.316 µM): > 7.50
- pIC50 (second compound 1 µM): > 7.50
- viability, T/C (second compound 0.00316 µM, first compound 0.0316 µM): 126%
- viability, T/C (second compound 0.00316 µM, first compound 0.1 µM): 93.4%
- viability, T/C (second compound 0.00316 µM, first compound 0.316 µM): 94.4%
- viability, T/C (second compound 0.00316 µM, first compound 1 µM): 109%
- viability, T/C (second compound 0.00316 µM, first compound 3.16 µM): 99.5%
- viability, T/C (second compound 0.00316 µM, first compound 10 µM): 7.46%
- viability, T/C (second compound 0.01 µM, first compound 0.0316 µM): 89.1%
- viability, T/C (second compound 0.01 µM, first compound 0.1 µM): 93.7%
- viability, T/C (second compound 0.01 µM, first compound 0.316 µM): 111%
- viability, T/C (second compound 0.01 µM, first compound 1 µM): 84.8%
- viability, T/C (second compound 0.01 µM, first compound 3.16 µM): 110%
- viability, T/C (second compound 0.01 µM, first compound 10 µM): 12.4%
- viability, T/C [1]: 63%
- viability, T/C [2]: 67.5%
- viability, T/C [3]: 74.5%
- viability, T/C [4]: 74.5%
- viability, T/C [5]: 103%
- viability, T/C [6]: 8.73%
- viability, T/C [7]: 67.4%
- viability, T/C [8]: 52.2%
- viability, T/C [9]: 61.7%
- viability, T/C [10]: 61.8%
- viability, T/C [11]: 63.2%
- viability, T/C [12]: 10.3%
- viability, T/C [13]: 31.6%
- viability, T/C [14]: 49.6%
- viability, T/C [15]: 38.3%
- viability, T/C [16]: 32.2%
- viability, T/C [17]: 37.5%
- viability, T/C [18]: 6.35%
- viability, T/C [19]: 19%
- viability, T/C [20]: 23.5%
- viability, T/C [21]: 16.7%
- viability, T/C [22]: 20.8%
- viability, T/C [23]: 19.2%
- viability, T/C [24]: 5.1%

SMILES: Cn1ncc(Cl)c1-c1cc(C(=O)NC(CN)Cc2cccc(F)c2)sc1Cl (centres undefined) + Cc1nc(NC(=O)N2CCCC2C(N)=O)sc1-c1ccnc(C(C)(C)C(F)(F)F)c1
- pIC50 (second compound 0.0316 µM): 5.61
- pIC50 (second compound 0.1 µM): 5.69
- pIC50 (second compound 0.316 µM): 5.73
- pIC50 (second compound 1 µM): 5.80
- pIC50 (second compound 3.16 µM): 5.88
- pIC50 (second compound 10 µM): > 7.50
- viability, T/C [1]: 88.2%
- viability, T/C [2]: 84.3%
- viability, T/C [3]: 89.2%
- viability, T/C [4]: 70.5%
- viability, T/C [5]: 44.7%
- viability, T/C [6]: 37.2%
- viability, T/C [7]: 84.4%
- viability, T/C [8]: 81.7%
- viability, T/C [9]: 97.5%
- viability, T/C [10]: 69.5%
- viability, T/C [11]: 41.3%
- viability, T/C [12]: 34.8%
- viability, T/C [13]: 71.4%
- viability, T/C [14]: 65.6%
- viability, T/C [15]: 64.6%
- viability, T/C [16]: 63.7%
- viability, T/C [17]: 39%
- viability, T/C [18]: 26.9%
- viability, T/C [19]: 71.7%
- viability, T/C [20]: 80.9%
- viability, T/C [21]: 57.3%
- viability, T/C [22]: 63.7%
- viability, T/C [23]: 31.2%
- viability, T/C [24]: 24.9%
- viability, T/C (second compound 3.16 µM, first compound 0.0316 µM): 66.7%
- viability, T/C (second compound 3.16 µM, first compound 0.1 µM): 64.4%
- viability, T/C (second compound 3.16 µM, first compound 0.316 µM): 72%
- viability, T/C (second compound 3.16 µM, first compound 1 µM): 56%
- viability, T/C (second compound 3.16 µM, first compound 3.16 µM): 27.6%
- viability, T/C (second compound 3.16 µM, first compound 10 µM): 18.1%
- viability, T/C (second compound 10 µM, first compound 0.0316 µM): 49.4%
- viability, T/C (second compound 10 µM, first compound 0.1 µM): 44.7%
- viability, T/C (second compound 10 µM, first compound 0.316 µM): 46%
- viability, T/C (second compound 10 µM, first compound 1 µM): 41.7%
- viability, T/C (second compound 10 µM, first compound 3.16 µM): 23.8%
- viability, T/C (second compound 10 µM, first compound 10 µM): 15.1%
